# Biological target: T1, mutant AR (Homo sapiens, UniProt P10275, T878A)
# T1 construct: LNCaP without transfection; endogenous in cells; host or cells: LNCaP
# T1 sequence (P10275 1-920 T878A): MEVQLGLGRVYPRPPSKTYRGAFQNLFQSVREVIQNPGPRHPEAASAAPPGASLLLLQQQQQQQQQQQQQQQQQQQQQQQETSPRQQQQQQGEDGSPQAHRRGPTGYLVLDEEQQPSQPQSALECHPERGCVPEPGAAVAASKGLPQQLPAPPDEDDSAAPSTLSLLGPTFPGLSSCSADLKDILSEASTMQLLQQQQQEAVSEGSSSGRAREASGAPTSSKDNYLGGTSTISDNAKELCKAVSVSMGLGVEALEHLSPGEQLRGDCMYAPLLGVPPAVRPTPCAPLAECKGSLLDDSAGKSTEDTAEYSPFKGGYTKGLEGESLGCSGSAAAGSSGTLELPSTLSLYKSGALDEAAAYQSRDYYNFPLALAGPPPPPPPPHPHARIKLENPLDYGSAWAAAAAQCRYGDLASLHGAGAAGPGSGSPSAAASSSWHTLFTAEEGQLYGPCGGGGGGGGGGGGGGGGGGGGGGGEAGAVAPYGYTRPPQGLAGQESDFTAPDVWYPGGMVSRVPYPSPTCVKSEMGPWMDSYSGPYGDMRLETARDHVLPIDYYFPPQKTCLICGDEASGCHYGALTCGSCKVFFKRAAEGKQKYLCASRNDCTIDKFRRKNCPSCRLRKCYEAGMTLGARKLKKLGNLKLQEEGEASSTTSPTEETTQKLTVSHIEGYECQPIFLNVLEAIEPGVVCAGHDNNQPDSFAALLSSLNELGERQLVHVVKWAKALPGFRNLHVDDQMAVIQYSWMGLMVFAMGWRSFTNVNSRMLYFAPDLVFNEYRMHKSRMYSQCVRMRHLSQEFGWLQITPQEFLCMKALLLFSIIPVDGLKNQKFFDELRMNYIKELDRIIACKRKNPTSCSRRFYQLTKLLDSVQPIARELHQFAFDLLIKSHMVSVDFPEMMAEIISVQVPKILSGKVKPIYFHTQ
# Assay: AR transcription, MMTV-Luc reporter in LNCaP cells
# Assay type: cell-based
# Conditions: MMTV-Luc
# Procedure: Cell Culture, Transfection, and Reporter Gene Assay. The human prostate cancer cell lines, LNCaP, PC-3, and DU145, and non-prostate cancer cell line COS-1 were maintained in RPMI or Dulbecco's modified Eagle's medium (DMEM) (Life Technologies) supplemented with 10% fetal bovine serum (FBS). […] Briefly, cells seeded to reach a density of 50-60% confluence in 12 well tissue culture plates were transfected with 1.5 μg of DNA according to “SuperFect transfection” instructions (Qiagen). After 2-3 h incubation, cells were treated with medium supplemented with charcoal-stripped FBS containing either ethanol or ligands for 24 h. The cells were then harvested and whole cell extracts were used for Luc assay. The Luc activity was determined using a Dual-Luciferase Reporter Assay System (Promega) and luminometer.
# The pSG5-AR was co-transfected in COS-1 cells. […] Values were obtained from the mean±SD of at least three determinations. DU145 cells were transfected with the pSG5-AR and MMTV-Luc in the presence or absence of pSG5-ARA70. […] Values were obtained for the mean±SD of at least three determinations.
structure (smiles),measurement,setting,value
"CC(=O)O[C@H]1C=C[C@@]2(C)C(=CC[C@@H]3[C@@H]2CC[C@@]2(C)[C@H]3CCC23OCCO3)C1 [ADEK, 3β-acetoxy-17,17-ethylenedioxyandrosta-1,5-diene]",DHT-induced mutant AR transcription suppressed to (DHT = 100%),"1 nM DHT, dose-dependent",17%
same,agonist / androgenic activity on mutant AR transcription (in words),HF at 10 μM,lower than that of casodex

# — US7638509B2, “Diene compounds and formulations” (priority 2003, dated 2009)
